Laboratory results: PubChem BioAssay AID762 (NMMLSC, 2007)

molecular target: fMet-Leu-Phe receptor (Homo sapiens) (UniProt P21462); assay: human FPR1 ligand displacement potency – cell-based, flow cytometry, IC50, selectivity assay for FPRL1 ligand SAR project, dose response (AID 762); settings: FPR-expressing cells, fluorescent ligand binding competition, IC50 of ligand binding inhibition
Sequence (P21462 whole entry, looked up): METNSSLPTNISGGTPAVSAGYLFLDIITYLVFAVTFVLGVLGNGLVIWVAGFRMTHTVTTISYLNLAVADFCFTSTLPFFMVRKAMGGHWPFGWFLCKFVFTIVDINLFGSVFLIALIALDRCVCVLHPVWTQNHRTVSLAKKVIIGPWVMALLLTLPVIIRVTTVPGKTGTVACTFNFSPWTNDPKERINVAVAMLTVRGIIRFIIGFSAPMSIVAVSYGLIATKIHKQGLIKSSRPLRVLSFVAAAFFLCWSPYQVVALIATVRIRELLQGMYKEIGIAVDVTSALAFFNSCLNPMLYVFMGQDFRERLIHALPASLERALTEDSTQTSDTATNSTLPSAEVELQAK

Structure (SMILES) | IC50 [µM]
CCOC(=O)N1CCN(c2nc(-c3ccc(OC)c(OC)c3)cc(C(F)(F)F)n2)CC1 | > 50.5
COc1ccc(CC(=O)Nc2cc(-c3cn4cccnc4n3)ccc2OC)cc1 | > 57.2
O=C(N1CCN(c2nc(-c3ccccc3)c3ccccc3n2)CC1)C(F)(F)F | > 57.5
COc1ccc(-c2cn3cccnc3n2)cc1NC(=O)C(C)C | > 71.6
COc1ccc(-c2cn3cccnc3n2)cc1NC(=O)C1CCCC1 | > 66.1
COc1ccc(-c2cn3cccnc3n2)cc1NC(=O)C1CC1 | > 72.1
COc1ccc(-c2cc(C(F)(F)F)nc(N3CCN(Cc4ccccc4)CC3)n2)cc1OC | > 48.5
CCC(=O)Nc1cc(-c2cn3cccnc3n2)ccc1OC | > 75
COc1ccc(-c2cc(C(F)(F)F)nc(N3CCN(c4ccccc4)CC3)n2)cc1OC | > 50
COc1ccc(-c2cc(C(F)(F)F)nc(N3CCN(C(c4ccccc4)c4ccccc4)CC3)n2)cc1OC | > 41.6
